Experimental data as given in patent publication US20120071496A1, “Aminopyrimidinamides As Pest Control Agents” (Bayer CropScience AG, priority 2009, published 2012).

Experiments:
[1] = system: Spodoptera litura third instar larvae; experiment: Test against tobacco cutworm (Spodoptera litura) larvae; type: in vivo; conditions: active compound concentration 100 ppm; immersed sweet potato leaves; after 7 days
Method: Unless not mentioned otherwise, the test solutions were prepared as follows:
Containing as solvent: Dimethylformamide, 3 parts by weight; and as emulsifier: Polyoxyethylene alkyl phenyl ether, 1 part by weight
Test Against Tobacco Cutworm (Spodoptera litura) Larvae
Leaves of sweet potato were immersed in the test solution at the appropriate concentration, and the leaves were dried in air. The leaves were then placed in a petri dish having a diameter of 9 cm, and ten Spodoptera litura at third instar larvae were released therein. The petri dishes were placed in a temperature-controlled chamber at 25° C. After 2 days and 4 days more sweet potato leaves were added. After 7 days, the number of dead larvae was counted to calculate the insecticidal activity. An insecticidal activity of 100% means that all larvae were killed, whereas an insecticidal activity of 0% means that no larva was killed.

[2] = logP (HCOOH); type: physicochemical; conditions: for chromatographic logP: HCOOH (formic acid)
[3] = system: mustard beetle larvae (Phaedon cochleariae); conditions: application rate 500 g/ha; sprayed Chinese cabbage leaf-disks; after 7 days
Method: Phaedon Cochleariae —Test; (Spray Application)
Chinese cabbage (Brassica pekinesis) leaf-disks are sprayed with a preparation of the active ingredient of the desired concentration. Once dry, the leaf disks are infested with mustard beetle larvae (Phaedon cochleariae).
After 7 days mortality in % is determined.

[4] = system: green peach aphid (Myzus persicae); experiment: whole plant or invertebrate; conditions: in Brassica rapa, 144 h, read-out: mortality in % (aphids killed)
Method: Myzus Persicae—Test; (Spray Application) 2
Solvent: 78.0 parts by weight acetone • 1.5 parts by weight dimethylformamide Emulsifier: 0.5 parts by weight alkylarylpolyglcolether
After 6 days mortality in % is determined.

Row | SMILES | insecticidal activity [1] | other results
1 | CCc1ncccc1C(=O)Nc1c(NC2CC2)ncnc1-c1ccc(Cl)cc1 [1-177, N-[4-(4-Chlorophenyl)-6-cyclopropylaminopyemidin-5-yl]-2-ethylnicotinamide] | 100% | chromatographic logP ([2]; Table 2): 1.31
2 | CCc1ncccc1C(=O)Nc1c(NC2CC2)ncnc1-c1ccc(Cn2nc(C(F)(F)C(F)(F)F)cc2C(F)(F)F)cc1 [1-247] | 100% | –
3 | O=C(Nc1c(NC2CC2)ncnc1-c1ccc(Cn2nc(C(F)(F)F)cc2C(F)(F)F)cc1)c1cccnc1C1CC1 [1-252] | 100% | –
4 | O=C(Nc1c(NC2CC2)ncnc1-c1ccc(Cn2nc(C(F)(F)C(F)(F)F)cc2C(F)(F)F)cc1)c1cccnc1C1CC1 [1-253] | 100% | –
5 | O=C(Nc1c(NC2CC2)ncnc1-c1ccc(F)cc1F)c1cccnc1CC(F)(F)F [1-254] | 100% | logP (HCOOH) ([2]; Table 2): 1.83
6 | CCc1ccccc1C(=O)Nc1c(NC2CC2)ncnc1-c1ccc(OC(F)(F)F)cc1 [1-257] | 100% | –
7 | CCc1ncccc1C(=O)Nc1c(NC2CC2)ncnc1-c1ccc(Cn2nc(C(F)(F)F)nc2C(F)(F)F)cc1 [1-258] | 100% | logP (HCOOH) ([2]; Table 2): 2.07
8 | O=C(Nc1c(NC2CC2)ncnc1-c1ccc(Cn2nc(C(F)(F)F)nc2C(F)(F)F)cc1)c1cccnc1C1CC1 [1-259] | 100% | –
9 | CCCc1ncccc1C(=O)Nc1c(NC2CC2)ncnc1-c1ccc(Cn2nc(C(F)(F)F)nc2C(F)(F)F)cc1 [1-264] | 100% | logP (HCOOH) ([2]; Table 2): 1.9
10 | CCc1ccccc1C(=O)Nc1c(NC2CC2)ncnc1-c1ccc(Cn2nc(C(F)(F)F)nc2C(F)(F)F)cc1 [1-265] | 100% | –
11 | CCc1ncccc1C(=O)Nc1c(NC2CC2)ncnc1-c1ccc(Cn2ccc(C(F)(F)C(F)(F)F)n2)cc1 [1-266] | 100% | –
12 | CCc1ncccc1C(=O)Nc1c(NC2CC2)ncnc1-c1ccc(Cn2ccc(C(F)(F)C(F)(F)C(F)(F)F)n2)cc1 [1-267] | 100% | –
13 | CCc1ncccc1C(=O)Nc1c(NC2CC2)ncnc1-c1ccc(Cn2nc(C(F)(F)F)cc2C(F)(F)F)cc1 [1-268] | 100% | –
14 | CCc1ncccc1C(=O)Nc1c(NC2CC2)ncnc1-c1ccc(Cn2nc(C(F)(F)C(F)(F)F)cc2C(F)(F)C(F)(F)F)cc1 [1-269] | 100% | –
15 | CCc1ccccc1C(=O)Nc1c(NC2CC2)nc(C)nc1-c1ccccc1 [1-280] | – | mortality in % (beetle larvae killed) [3]: 1-280%
16 | CCc1ccccc1C(=O)Nc1c(NC2CC2)ncnc1-c1ccc(Cn2cnc(C(F)(F)F)n2)cc1 [1-286] | 100% | –
17 | CCc1ncccc1C(=O)Nc1c(NC2CC2)ncnc1-c1ccc(Oc2ncc(C(F)(F)F)cc2Cl)cc1 [1-310] | 100% | logP (HCOOH) ([2]; Table 2): 1.84
18 | CCc1ncccc1C(=O)Nc1c(NC2CC2)ncnc1-c1ccc(Oc2ncccc2C(F)(F)F)cc1 [1-311] | 100% | –
19 | CCc1ncccc1C(=O)Nc1c(NC2CC2)ncnc1-c1ccc(Oc2cccc(C(F)(F)F)n2)cc1 [1-312] | 100% | –
20 | CCc1ncccc1C(=O)Nc1c(NC2CC2)nc(C(F)(F)F)nc1-c1ccc(F)cc1 [1-313] | 100% | –
21 | CCc1ncccc1C(=O)Nc1c(NC2CC2)nc(C(F)(F)F)nc1-c1ccc(F)cc1F [1-314] | 100% | –
22 | CCc1ncccc1C(=O)Nc1c(NC2CC2)ncnc1-c1ccc(Oc2nc(C(F)(F)F)cc(C(F)(F)C(F)(F)F)n2)cc1 [1-317] | 100% | –
23 | CCc1ncccc1C(=O)Nc1c(NC2CC2)ncnc1-c1ccc(Cc2nc(C(F)(F)C(F)(F)C(F)(F)F)n(C)n2)cc1 [1-318] | 100% | –
24 | CCc1ncccc1C(=O)Nc1c(NC2CC2)ncnc1-c1ccc(Cc2n[nH]c(C(F)(F)C(F)(F)C(F)(F)F)n2)cc1 [1-319] | 100% | –
25 | O=C(Nc1c(NC2CC2)nc(C(F)(F)F)nc1-c1ccc(F)cc1)c1cccnc1CC(F)(F)F [1-324] | 100% | –
26 | O=C(Nc1c(NC2CC2)nc(Cl)nc1-c1ccc(F)cc1)c1cccnc1CC(F)(F)F [1-325] | 100% | –
27 | CCc1ncccc1C(=O)Nc1c(NC2CC2)nc(Cl)nc1-c1ccc(F)cc1 [1-326] | 100% | –
28 | CCc1ncccc1C(=O)Nc1c(Cl)ncnc1NC1CC1 [3-1, N-(4-Chloro-6-cyclopropylaminopyrimidin-5-yl)-2-ethylnicotinamide] | – | mortality at 500 g/ha [4]: ≥ 80%; chromatographic logP ([2]; Table 4): 0.79
29 | CCc1ncccc1C(=O)Nc1c(Cl)ncnc1Nc1ccc(F)cc1 [5-2] | 100% | –
